Results on ten compounds are retold here after ChEMBL document CHEMBL1153923, “Carbonic anhydrase inhibitors. Inhibition of human erythrocyte isozymes I and II with a series of antioxidant phenols” (Bioorg Med Chem, 2009).

In test [1] the target is Carbonic anhydrase 1 (Homo sapiens, UniProt P00915). Description: Inhibition of human erythrocyte CA1 esterase activity using 4-nitrophenyl acetate substrate.
In test [2] the target is Carbonic anhydrase 2 (Homo sapiens, UniProt P00918).
Description: Inhibition of human erythrocyte CA2 esterase activity using 4-nitrophenyl acetate substrate

One may read the Ki as the equilibrium dissociation constant of an inhibitor or competing ligand from its target.

Sequence of Carbonic anhydrase 1 (P00915 whole entry): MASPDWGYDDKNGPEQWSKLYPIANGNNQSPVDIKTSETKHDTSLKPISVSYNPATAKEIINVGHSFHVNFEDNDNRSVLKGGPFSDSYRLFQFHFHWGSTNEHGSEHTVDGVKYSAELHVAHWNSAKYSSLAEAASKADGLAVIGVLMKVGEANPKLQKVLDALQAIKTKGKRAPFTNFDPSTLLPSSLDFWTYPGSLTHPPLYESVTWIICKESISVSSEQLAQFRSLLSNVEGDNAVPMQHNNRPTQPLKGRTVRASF

As for `CC(C)c1cccc(C(C)C)c1O` [PROPOFOL], the inhibition constant Ki amounted to 98.9 µM in test [1] and 19.5 µM in test [2]. `COc1c(O)cccc1C=O` yielded an inhibition constant (Ki) in test [1] of 55.6 µM. This counts as double-digit micromolar. In the case of `CC(C)(C)c1cc(-c2cc(C(C)(C)C)c(O)c(C(C)(C)C)c2)cc(C(C)(C)C)c1O`, the Ki in test [1] was found to be 37.5 µM. For the compound `Cc1cc(C(C)(C)C)c(O)c(C(C)(C)C)c1` [BUTYLATED HYDROXYTOLUENE], the Ki came out at 245 µM in test [1] and 0.63 µM in test [2]. Take `Cc1cc(-c2cc(C)c(O)c(C)c2)cc(C)c1O`: the inhibition constant Ki in test [1] worked out at 92.8 µM; in test [2], 4.05 µM. Compound `CC(C)(C)c1cccc(C(C)(C)C)c1O` yielded a Ki in test [1] of 275 µM. On to `COc1cc(C(C)(C)C)c(O)c(C(C)(C)C)c1`, for which, in test [1], the affinity corresponds to a Ki of 63.7 µM.

`CC(C)c1cc(-c2cc(C(C)C)c(O)c(C(C)C)c2)cc(C(C)C)c1O` gave a Ki in test [1] of 37.9 µM. As for `COc1ccccc1O` [GUAIACOL], the Ki in test [1] was 60.2 µM; in test [2], 2.94 µM. On the same counts, the results for `Cc1cccc(C)c1O` are 198 µM and 113 µM.
